# Experimental data as given in ChEMBL document CHEMBL1201862, “PubChem BioAssay data set” (2004).
# Activity calls are given as the source filed them.
# Experiments:
# [1] = biological target: T1, Polyadenylate-binding protein 1 (Homo sapiens, UniProt P11940); assay: PABP1 MLLE–PAM2 interaction inhibitors, dose response, miRNA deadenylation inhibitor project, biochemical, fluorescence polarization, Cy5-PAM2 peptide, secondary (AID 602260); format: functional; details: read-out: IC50_Mean
# [2] = biological target: T1, Polyadenylate-binding protein 1; assay: PABP1 MLLE–PAM2 binding inhibitor potency, dose response, biochemical, fluorescence polarization, FITC-PAM2 peptide (AID 602259); format: functional; details: read-out: IC50_Mean
# H9c2 = assay: cells; format: functional, cell-based; details: Rattus norvegicus, H9c2, Myocardium;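 note: confirmatory concentration-response retest of ultra-high-throughput screening hits for modulation of myocardial damage; cell death induced by hydrogen peroxide oxidative stress; compound pretreatment for 60 min then peroxide exposure for 2 h; potency is for protecting the cells against peroxide damage rather than for killing them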
# BJ [3] = assay: cytotoxicity toward BJ-TERT fibroblasts, dose response, cell-based, RAS-independent, luminescence (AID 1933); format: functional; details: Homo sapiens
# BJ [4] = assay: cells; format: functional, cell-based; details: Homo sapiens
# BJ [5] = assay: cytotoxicity toward BJ-TERT-LT-ST fibroblasts, dose response, cell-based, RAS-independent, luminescence (AID 1935); format: functional; details: Homo sapiens;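 note: BJ fibroblasts immortalized with TERT plus LT and ST oncogenes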
# [6] = cytotoxicity toward DRD oncogenic fibroblasts, dose response, cell-based, non-viral oncogenic, luminescence (AID 1934); format: functional; details: Homo sapiens
# [7] = microbe, parasite or virus in culture; format: functional; details: Mycobacterium tuberculosis
# [8] = biological target: FAD-linked sulfhydryl oxidase ALR (Homo sapiens, UniProt P55789); assay: inhibitors of human ALR sulfhydryl oxidase, dose response, biochemical, H2O2 detection, luminescence, cherry-pick (AID 493248)
# Chain of FAD-linked sulfhydryl oxidase ALR (P55789 whole entry): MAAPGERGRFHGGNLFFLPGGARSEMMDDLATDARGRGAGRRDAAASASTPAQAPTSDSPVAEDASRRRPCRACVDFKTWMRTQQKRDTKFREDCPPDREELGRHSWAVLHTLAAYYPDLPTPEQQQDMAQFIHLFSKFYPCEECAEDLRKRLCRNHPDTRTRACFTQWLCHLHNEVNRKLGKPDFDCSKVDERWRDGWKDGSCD
# [9] = biological target: T2, High affinity choline transporter 1 (Homo sapiens, UniProt Q9GZV3); assay: CHT inhibitors, dose response, cell-based, 5-point CRC, membrane potential dye (AID 504840); format: functional
# T2 sequence (Q9GZV3 whole entry): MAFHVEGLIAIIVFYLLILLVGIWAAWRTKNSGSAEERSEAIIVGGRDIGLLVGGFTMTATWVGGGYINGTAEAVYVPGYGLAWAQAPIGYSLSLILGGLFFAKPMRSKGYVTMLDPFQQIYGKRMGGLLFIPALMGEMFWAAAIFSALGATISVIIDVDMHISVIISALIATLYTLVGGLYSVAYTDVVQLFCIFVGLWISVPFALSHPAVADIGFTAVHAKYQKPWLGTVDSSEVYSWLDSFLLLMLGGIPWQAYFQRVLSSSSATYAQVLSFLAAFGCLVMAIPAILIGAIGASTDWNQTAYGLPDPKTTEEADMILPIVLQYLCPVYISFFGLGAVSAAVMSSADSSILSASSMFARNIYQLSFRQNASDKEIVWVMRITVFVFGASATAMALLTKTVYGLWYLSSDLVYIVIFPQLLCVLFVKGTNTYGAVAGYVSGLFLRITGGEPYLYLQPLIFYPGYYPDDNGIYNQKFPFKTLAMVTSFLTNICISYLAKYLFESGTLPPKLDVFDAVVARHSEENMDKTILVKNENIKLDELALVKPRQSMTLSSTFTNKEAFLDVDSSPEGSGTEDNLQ
# [10] = biological target: T3, Rac GTPase-activating protein 1 (Homo sapiens, UniProt Q9H0H5); assay: MgcRacGAP GTPase-activating activity inhibitors, confirmation, biochemical, ADP Hunter fluorescence, primary and confirmatory (AID 624330); format: functional
# T3 sequence (Q9H0H5 whole entry): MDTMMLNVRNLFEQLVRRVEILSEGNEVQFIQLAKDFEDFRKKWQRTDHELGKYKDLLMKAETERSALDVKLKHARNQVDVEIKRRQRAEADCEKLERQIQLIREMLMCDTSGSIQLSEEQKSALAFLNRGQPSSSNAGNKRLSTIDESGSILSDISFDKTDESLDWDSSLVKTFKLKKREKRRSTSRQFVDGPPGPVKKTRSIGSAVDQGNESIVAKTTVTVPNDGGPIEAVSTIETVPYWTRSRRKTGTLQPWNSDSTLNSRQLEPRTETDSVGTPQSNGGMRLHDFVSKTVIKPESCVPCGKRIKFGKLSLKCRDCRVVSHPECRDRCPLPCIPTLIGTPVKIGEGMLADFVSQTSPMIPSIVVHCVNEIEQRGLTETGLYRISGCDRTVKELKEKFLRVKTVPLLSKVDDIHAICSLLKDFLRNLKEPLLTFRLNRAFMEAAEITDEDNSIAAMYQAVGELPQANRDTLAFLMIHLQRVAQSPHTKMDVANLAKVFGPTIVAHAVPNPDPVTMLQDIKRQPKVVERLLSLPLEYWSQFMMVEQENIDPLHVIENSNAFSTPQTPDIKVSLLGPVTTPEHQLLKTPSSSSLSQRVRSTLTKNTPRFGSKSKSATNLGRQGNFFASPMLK
# [11] = biological target: T4, Corticotropin-releasing factor receptor 2/Corticotropin-releasing factor-binding protein (Homo sapiens, UniProt P24387+Q13324); assay: Dose Response confirmation of uHTS hits for small molecule antagonists of the CRF-binding protein and CRF-R2 receptor complex.; format: functional; details: read-out: IC50_Mean
# T4 sequence (Q13324 whole entry): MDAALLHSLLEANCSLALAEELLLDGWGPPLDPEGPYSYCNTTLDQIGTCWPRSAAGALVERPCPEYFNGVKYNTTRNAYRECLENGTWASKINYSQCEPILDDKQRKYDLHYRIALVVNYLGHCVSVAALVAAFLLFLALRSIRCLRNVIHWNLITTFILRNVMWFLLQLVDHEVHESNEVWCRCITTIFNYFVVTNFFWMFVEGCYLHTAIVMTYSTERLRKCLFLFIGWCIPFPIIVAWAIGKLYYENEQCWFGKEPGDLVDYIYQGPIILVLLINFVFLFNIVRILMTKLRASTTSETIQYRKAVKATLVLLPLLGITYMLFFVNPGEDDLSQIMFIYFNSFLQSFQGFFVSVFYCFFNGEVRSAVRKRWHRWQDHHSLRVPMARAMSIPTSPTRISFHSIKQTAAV
# T4 sequence (P24387 whole entry): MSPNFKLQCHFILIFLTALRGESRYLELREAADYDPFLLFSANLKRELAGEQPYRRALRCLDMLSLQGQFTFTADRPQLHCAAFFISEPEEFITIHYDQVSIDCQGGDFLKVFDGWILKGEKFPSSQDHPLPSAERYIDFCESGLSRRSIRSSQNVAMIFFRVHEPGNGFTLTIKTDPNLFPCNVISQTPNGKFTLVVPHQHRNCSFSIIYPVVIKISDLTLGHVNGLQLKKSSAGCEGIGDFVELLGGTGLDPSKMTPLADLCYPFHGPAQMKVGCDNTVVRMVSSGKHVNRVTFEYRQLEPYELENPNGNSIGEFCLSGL
# [12] = biological target: T4, Corticotropin-releasing factor receptor 2/Corticotropin-releasing factor-binding protein; assay: activators of CRF receptor 2 with binding protein – uHTS hits, confirmation (AID 602473); format: functional; details: read-out: EC50_Mean
# [13] = inhibitors of intracellular T. cruzi replication, confirmation, NIH3T3 host cells, beta-gal luminescence (AID 2044); format: functional, cell-based;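 note: intracellular parasites grown in NIH/3T3 mouse fibroblasts as host cells; luminescent beta-galactosidase reporter signal from transgenic T. cruzi replicating inside host cells; inhibitors lower the luminescence signal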
# [14] = cytotoxicity toward NIH3T3 fibroblasts, dose response, counter-screen, cell-based, ATP luminescence, mouse fibroblasts (AID 2010); format: functional;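 note: cells exposed to compound for about 90 hours before reading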
# INS1 = assay: beta cell apoptosis inhibitors, cytokine rescue, dose response, luminescence, retest (AID 449756); format: functional, cell-based; details: Rattus norvegicus;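 note: cell death triggered by IL-1 beta plus TNF-alpha plus IFN-gamma mixture; protective hits raise ATP signal compared with cytokine alone wells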
# [15] = A549 cell cytotoxicity, dose response, cytotoxicity control, plate reader, cherry-pick, antagonist series (AID 743412); format: functional, cell-based
# [16] = LGR2 antagonists, dose response, cell-based, HEK293, CRE-luciferase reporter, cherry pick, set 2 (AID 743343); format: functional;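 note: transfected cells were stimulated with diluted bursicon conditioned medium after compound addition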
# [17] = MC4R antagonists, dose response, counter-screen for LGR2 antagonist project, cell-based, plate reader, cherry pick (AID 743444); format: functional;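 note: transfected HEK 293 cells stimulated with alpha-MSH peptide; potency of inhibitors of the alpha-MSH evoked signal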
# Paired box protein Pax-8 = Paired box protein Pax-8 (Homo sapiens, UniProt Q06710); assay: inhibitors of PAX8-driven TPO luciferase reporter, dose response, RMG-I cells, cherry-pick (AID 687027); format: functional, cell-based;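 note: luciferase reporter driven by Pax8 target thyroperoxidase promoter measured by SteadyGlo luminescence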
# Chain of Paired box protein Pax-8 (Q06710 whole entry): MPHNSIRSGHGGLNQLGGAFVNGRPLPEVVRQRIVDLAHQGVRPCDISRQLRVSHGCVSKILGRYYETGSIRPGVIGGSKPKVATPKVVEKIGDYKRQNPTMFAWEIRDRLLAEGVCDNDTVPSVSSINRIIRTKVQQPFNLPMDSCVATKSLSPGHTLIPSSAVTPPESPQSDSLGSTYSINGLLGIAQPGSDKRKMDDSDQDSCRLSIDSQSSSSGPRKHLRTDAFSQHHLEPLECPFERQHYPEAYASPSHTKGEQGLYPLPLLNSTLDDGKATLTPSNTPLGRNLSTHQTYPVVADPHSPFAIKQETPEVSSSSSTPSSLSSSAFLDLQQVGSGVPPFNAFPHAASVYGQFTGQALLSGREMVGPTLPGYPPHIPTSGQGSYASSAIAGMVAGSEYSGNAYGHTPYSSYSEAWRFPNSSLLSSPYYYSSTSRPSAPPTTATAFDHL
# [18] = HepG2 cell cytotoxicity, dose response, cytotoxicity control, plate reader, cherry-pick, antagonist series (AID 743416); format: functional, cell-based
# [19] = HEK293 cell cytotoxicity, dose response, cytotoxicity control, plate reader, cherry-picked samples (AID 743446); format: functional, cell-based
# T1 sequence (P11940 whole entry): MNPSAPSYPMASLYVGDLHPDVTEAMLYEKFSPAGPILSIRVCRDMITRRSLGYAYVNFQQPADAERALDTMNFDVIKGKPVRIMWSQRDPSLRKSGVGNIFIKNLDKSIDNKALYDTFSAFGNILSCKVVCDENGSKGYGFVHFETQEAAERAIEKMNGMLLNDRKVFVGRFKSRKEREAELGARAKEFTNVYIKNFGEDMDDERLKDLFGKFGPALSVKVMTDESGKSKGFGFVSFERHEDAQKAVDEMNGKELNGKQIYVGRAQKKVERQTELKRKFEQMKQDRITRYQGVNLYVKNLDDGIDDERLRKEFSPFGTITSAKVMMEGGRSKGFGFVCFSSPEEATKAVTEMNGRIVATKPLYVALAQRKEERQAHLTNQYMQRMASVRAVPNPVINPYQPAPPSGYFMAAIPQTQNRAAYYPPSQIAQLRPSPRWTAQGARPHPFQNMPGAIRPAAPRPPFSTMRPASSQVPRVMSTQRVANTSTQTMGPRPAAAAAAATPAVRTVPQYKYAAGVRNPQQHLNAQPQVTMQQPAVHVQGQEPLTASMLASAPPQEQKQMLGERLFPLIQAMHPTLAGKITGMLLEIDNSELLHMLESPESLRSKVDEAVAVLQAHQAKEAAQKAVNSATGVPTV
compound,measurement,setting,value
O=C1C=C(NNC(=O)c2cccnc2)CC(c2ccco2)C1 (stereo not given),IC50,[1],> 66 µM (inactive)
same,IC50,[2],> 66 µM (inactive)
Cc1cccc(NC(=O)c2[nH]cnc2C(=O)NCC(=O)OCc2ccccc2)c1,IC50,H9c2,> 79 µM (inactive)
Cc1cc(C(F)(F)F)nc(SCC(=O)NC2=NC(=O)C(C)S2)n1 (stereo not given),IC50,[1],> 66 µM (inactive)
same,IC50,[2],> 66 µM (inactive)
O=C1CCCc2cc3c(cc21)CC1(C3)Cc2cc3c(cc2C1)C(=O)CCC3,EC50,BJ [3],9.1 µM (active)
same,EC50,BJ [4],33 µM (active)
same,EC50,BJ [5],3.95 µM (inconclusive)
same,EC50,[6],15.6 µM (active)
Cc1cc(C)c2c(NC(=O)CCl)nn(C)c2n1,EC50,BJ [3],28.7 µM (active)
same,EC50,BJ [4],> 150 µM (not active)
same,EC50,BJ [5],> 150 µM (inconclusive)
same,EC50,[6],29.2 µM (active)
Cc1ccc(N=C(S)C2=C(O)c3ccccc3N(C)S2(=O)=O)cc1,IC50,[1],> 66 µM (inactive)
same,IC50,[2],> 66 µM (inactive)
CC(OC(=O)Cc1nnc(O)c2ccccc12)C(=O)Nc1ccc(F)cc1 (stereo not given),IC50,H9c2,> 79 µM (inactive)
CCOc1ccc(CCNC(=O)c2cc3c(C)nccc3nc2O)cc1OCC,IC50,H9c2,> 79 µM (inactive)
Cc1cc(NS(=O)(=O)c2ccc(NC(=S)NC(=O)c3ccc(F)cc3)cc2)no1,IC50,[1],> 66 µM (inactive)
same,IC50,[2],> 66 µM (inactive)
CSCCCN=C(S)N1CCN(c2ccc(C(C)=O)cc2)CC1,CC50,[7],> 40 µM (active)
COc1ccc(OC)c(C2C(C#N)=C(N)Oc3cc(N)ccc32)c1 (stereo not given),AC50,[8],3.1 µM (active)
Cc1ncsc1CCC(=O)N1CCCC(Nc2ccc(C(C)C)cc2)C1 (stereo not given),AC50,[8],3.68 µM (active)
CCCOc1ccc(C(CC(=O)O)NC(=O)CC(c2ccccc2)c2ccccc2)cc1 (stereo not given),IC50,[9],12 µM (active)
Cc1cccc(NC(=O)c2oc3ccc(S(=O)(=O)N4CCOCC4)cc3c2C)c1C,IC50,H9c2,> 79 µM (inactive)
Cc1cc(N2CCCC2)ccc1NC(=O)CN1C(=O)NC2(CCCCC2)C1=O,AC50,[8],0.644 µM (active)
same,IC50,[10],268 µM (active)
O=C(c1ccc(O)cc1)c1ccc(Cl)cc1,IC50,[9],11 µM (active)
O=C(CCl)Nc1nccs1,CC50,[7],13.7 µM (active)
same,IC50,[11],> 47.1 µM (inactive)
same,EC50,[12],> 53 µM (inactive)
CC1(C(=O)N2CCC(CC3CC(c4ccc(Cl)cc4)=NO3)(C(=O)NCC3CCCCC3)CC2)CC1 (stereo not given),IC50,[9],6.92 µM (active)
COc1ccc(-c2ccc3c(c2)S(=O)(=O)c2cccc(C(=O)NC[C@@H]4CCCO4)c2C3=O)cc1OC,IC50,H9c2,> 79 µM (inactive)
CCn1c(-c2ccc(N(C)C)cc2)nc2ccccc21,EC50,[13],1.67 µM (active)
same,EC50,[14],> 60 µM (not active)
same,AC50,[8],1.48 µM (active)
same,AC50,INS1,4.25 µM (active)
CCOC(=O)CC1(CC(=O)OCC)NC(=O)c2c(C)sc(C(=O)OCC)c2N1,IC50,[9],13.8 µM (active)
CCOC(=O)c1cccc(NC(=O)CCS(=O)(=O)c2cccc3nsnc23)c1,IC50,[9],14.8 µM (active)
c1ccc2nc3[nH]cnc3nc2c1,IC50,[1],> 66 µM (inactive)
same,IC50,[2],> 66 µM (inactive)
CC1CCN(S(=O)(=O)c2nnc(NC(=O)c3cccc([N+](=O)[O-])c3)s2)CC1,IC50,[9],11.5 µM (active)
CCO/C(O)=C1/Sc2cc(C)ccc2N=C1C,IC50,[1],> 66 µM (inactive)
same,IC50,[2],> 66 µM (inactive)
CCCn1nc2cc(C(=O)NCc3ccc(C)cc3)ccc2c1OCC,IC50,[9],8.18 µM (active)
COc1ccccc1N/C=C/c1onc(C)c1[N+](=O)[O-],AC50,[15],> 52 µM (inactive)
same,AC50,[16],3.4 µM (active)
same,AC50,[17],4.75 µM (active)
Cc1ccc(/C=C(\NC(=O)c2ccc(C)cc2)c2n[nH]c(S)n2)cc1,CC50,[7],> 40 µM (active)
CC(C)c1ccc(NC2CCCN(C(=O)c3cc(C(C)C)nc(N)n3)C2)cc1 (stereo not given),AC50,[8],0.714 µM (active)
CC(Oc1ccccc1Cl)C(=O)Nc1ccc(S(=O)(=O)N2CCN(C)CC2)cc1 (stereo not given),IC50,[1],> 66 µM (inactive)
same,IC50,[2],> 66 µM (inactive)
O=C(CCc1nc(O)c2ccccc2n1)N1CCN(c2ccccc2Cl)CC1,IC50,H9c2,> 79 µM (inactive)
CCOC(=O)COc1ccc2c3c(c(=O)oc2c1)CCCC3,IC50,H9c2,31.2 µM (inactive)
CN(C)c1ccc(/C=N/NC(=O)c2ccccn2)cc1,AC50,[8],35.5 µM (active)
Cc1noc(C)c1S(=O)(=O)N(C)C[C@@H]1OCCCC[C@H](C)Oc2ccc(NS(=O)(=O)c3ccc(Cl)cc3)cc2C(=O)N([C@H](C)CO)C[C@@H]1C,AC50,Paired box protein Pax-8,10.4 µM (active)
COc1ccccc1C#Cc1ccc([C@H]2[C@H](C#N)N(C(=O)C3CCCCC3)[C@H]2CO)cc1,AC50,[15],24.5 µM (active)
same,AC50,[18],43.7 µM (active)
same,AC50,[16],5.49 µM (active)
same,AC50,[17],5.75 µM (active)
same,AC50,[19],9.53 µM (active)
